Results: article PMC12693156, “Antiprotozoal Aminosteroid Alkaloids from Buxus obtusifolia (Mildbr.) Hutch” (Molecules, 2025)
Where two headings read alike, the source gives them in different places.

How the values were obtained:
[1] = tested on: Trypanosoma brucei rhodesiense (Tbr), STIB 900 strain; experiment: In vitro activity against Trypanosoma brucei rhodesiense (bloodstream trypomastigotes, STIB 900 strain); type: cell-based
Experimental: (§1) In vitro biological activity against Trypanosoma brucei rhodesiense (bloodstream trypomastigotes, STIB 900 strain), Plasmodium falciparum (intraerythrocytic form, NF54 strain) and cytotoxicity assay against rat skeletal myoblasts (L6 cell line) were carried out at the Swiss Tropical and Public Health Institute (Swiss TPH, Allschwil, Switzerland) in accordance with the established standard procedures, in exactly the same manner and with the same cell lines as described recently.

[2] = tested on: Plasmodium falciparum (Pf), NF54 strain; experiment: In vitro activity against Plasmodium falciparum (intraerythrocytic form, NF54 strain); type: cell-based; conditions: for IC50: Plasmodium falciparum
Experimental: as §1

[3] = Cytotoxicity assay against rat skeletal myoblasts (L6 cell line); type: cell-based
Experimental: as §1

[4] = tested on: Trypanosoma brucei rhodesiense (Tbr), STIB 900 strain; design: method as in PMID 40076324; conditions: separately tested in a recent study; cited from earlier work
[5] = tested on: Plasmodium falciparum (Pf), NF54 strain; design: method as in PMID 40076324; conditions: separately tested in a recent study; cited from earlier work
[6] = Trypanosoma brucei rhodesiense, mean of two separate IC50 determinations ± absolute deviation, compounds tested as bis- or mono-trifluoroacetates, read-out: Tbr IC50
[7] = NF54, mean of two separate IC50 determinations ± absolute deviation, compounds tested as bis- or mono-trifluoroacetates, read-out: Pf IC50

SMILES	IC50 [1, 6]	IC50 [2, 7]	other results
CN[C@H]1[C@H](O)C[C@]23C[C@]24CC[C@]2(C)[C@@H]([C@H](C)N(C)C)CC[C@@]2(C)[C@@H]4CC[C@H]3C1(C)C [Compound 1, cycloprotobuxoline-C]	6.7 ± 3.3 µM	28 ± 0.7 µM	IC50 [3]: > 100 µM
CN[C@H]1[C@H](O)C[C@]23C[C@]24CC[C@]2(C)[C@@H]([C@H](C)N(C)C)CC[C@@]2(C)[C@@H]4CC[C@H]3[C@]1(C)COC(=O)c1cc(OC)c(OC)c(OC)c1 [Compound 5, 29-trimethoxybenzoyloxy cycloprotobuxoline-C]	1.6 ± 0.7 µM	0.5 µM	IC50 ([2]; NF54, isolated compounds, tested as trifluoroacetate salts, molar IC50 calculated with mass of the salt, read-out: IC50 against Pf (antiplasmodial activity)): < 1 µM
CN[C@@H](C)[C@H]1CC[C@@]2(C)[C@@H]3C=C[C@H]4C(C)(C)[C@@H](N(C)C)CC[C@@]45C[C@@]35CC[C@]12C [Compound 12, deoxycyclovirobuxeine-B]	0.8 ± 0.3 µM	5.4 ± 1.2 µM	IC50 ([1]; Trypanosoma brucei, isolated compounds, tested as trifluoroacetate salts, molar IC50 calculated with mass of the salt, read-out: IC50 against Tbr (antitrypanosomal activity)): < 1 µM
CN[C@@H](C)[C@H]1CC[C@@]2(C)[C@@H]3CC[C@H]4[C@]5(C)COCN(C)[C@H]5CC[C@@]45C[C@@]35CC[C@]12C [Compound 15, N20-demethyl deoxycyclobuxoxazine-A]	6.6 ± 3.5 µM	5.8 ± 0.4 µM	
CN[C@H]1CC[C@]23C[C@]24CC[C@]2(C)[C@@H](C(C)=O)[C@H](OC)C[C@@]2(C)[C@@H]4CC[C@H]3C1 [Compound 16, obtusibuxeine-A]	22 ± 1.7 µM	13 ± 1.4 µM	SI Tbr (selectivity index) ([1]; cytotoxic IC50 (L6) / IC50 Tbr): 2; SI Pf (selectivity index) ([2]; cytotoxic IC50 (L6) / IC50 Pf): 3; IC50 [3]: 45 ± 5.1 µM
CC(=O)OC1C2OC3(C=CC(NC(=O)c4ccccc4)C(C)(C)C13)CC1=CCC3(C)C(C(C)N(C)C)C(O)CC3(C)C12 (stereo not drawn) [Compound 21, obtusiepoxamine-A]	2.2 ± 0.2 µM	10 ± 1.1 µM	
CC(=O)O[C@H]1[C@@H](O)[C@@H]2C(=CC[C@]3(C)[C@@H]([C@H](C)N(C)C)CC[C@@]23C)CC2=CC[C@H](NC(=O)c3ccccc3)C(C)(C)[C@@H]21 [Compound 23, 16-deoxyobtusidienolamine-A]	6.5 ± 0.4 µM	30 ± 6.5 µM	
CCN(CC)CCCC(C)Nc1ccnc2cc(Cl)ccc12 (stereo not drawn) [chloroquine, reference compound]			IC50 ([2]; NF54, read-out: IC50 Pf): 2 ng/mL; IC50 ([2]; NF54, read-out: Pf IC50): 0.012 µM
Nc1nc(N)nc(Nc2ccc([As]3SCC(CO)S3)cc2)n1 (stereo not drawn) [melarsoprol, reference compound]			IC50 ([1]; Trypanosoma brucei, read-out: IC50 Tbr): 4 ng/mL; IC50 ([1]; Trypanosoma brucei, read-out: Tbr IC50): 0.013 ± 0.001 µM
COc1cc([C@@H]2c3cc4c(cc3[C@H](O)[C@H]3COC(=O)[C@H]23)OCO4)cc(OC)c1OC [podophyllotoxin, reference compound]			IC50 ([3]; Table 1, crude extracts and acid-base fractions, mean of two determinations ± absolute deviation, read-out: IC50 Cytotox. L6): 7 ± 2 ng/mL
O=C([O-])C(F)(F)F.[Na+] [sodium trifluoroacetate]			activity against the target parasites (Tbr) [4]: inactive; activity against the target parasites (Pf) [5]: inactive
